Experimental data: patent US20180140537A1, “ACTIVE COMPLEX FOR A COSMETIC PRODUCT AGAINST SKIN AGEING” (priority 2014, published 2018)

How the values were obtained:
HaCaT keratinocytes = assay: DCFH assay: UV-B-induced intracellular ROS (epidermal anti-oxidant potential, AOE); type: cell-based, human; settings: for AOE, % reduction of [ROSUV]: vs (+) UV control
Source text: 3.1.1) The principle of the assay is based on the measurement of the intracellular oxidation level by means of the probe: 2′,7′-dichloro-dihydrofluorescein diacetate (DCFH-DA). Non-fluorescent DCFH-DA penetrates by passive diffusion into the cells. After cleavage of the acetate groups by the esterases, DCFH accumulates at the cytosol. The oxidation of DCFH by the reactive oxygen species (ROS: “Reactive Oxidative Species”) leads to the formation of a fluorescent compound. The DCF fluorescence intensity gives the possibility of evaluating the oxidation level of the cells subject to an oxidative stress.
More specifically, the measurement of the fluorescence intensities of DCF gives the possibility of evaluating the oxidation level of the cells subject to an oxidative stress. The DCFH assay detects a large range of ROSes: hydroxyl peroxyl and other ROSes (Fluorescence probes used for detection of reactive oxygen species, A. Gomes et al., J. Biochem. Biophys. Methods, 65:45-80; 2005).
HaCaT keratinocytes cultivated in a mono-layer are detached by trypsinization. The cell suspension is sown in 24-well plates.
2 plates are sown in parallel: 1 plate [DCFH] (measurement of DCFH fluorescence) and 1 plate [Prot] (measurement of cell proteins).
The plates [DCFH] and [Prot] are treated in parallel, in an identical way, according to the following experimental procedure.
72 hours after sowing, the culture medium is removed and replaced with fresh medium containing the assay element. The cells are replaced at 37° C. and incubated for 24 hours, in an air-CO2 atmosphere (95%/5%). After incubation with the assay element, the cells are rinsed with HBSS (a so called Hanks solution) and then exposed to UV-B (Philips TL-K 40 W ACTINIC BL REFLECTOR tubes) through the HBSS. The cells were treated with the various assayed complexes before (24 h) and after (24 h) irradiation with UV-B for about 30 minutes at 20 mJ/cm^2.
After irradiation, the HBSS is replaced with fresh medium containing the assay element. The cells are replaced at 37° C. for 24 h in an air-CO2 atmosphere (95%/5%). At the end of the assay, the [DCFH] and [Prot] plates are treated, in the following way:
The [DCFH] plates are emptied and rinsed with PBS. The cells are then incubated at 37° C., in the presence of a DCFH-DA solution. After incorporating the probe, the cells are rinsed with PBS. An extraction buffer (Triton X-100 1%) is added into each well. After 45 mins of incubation, the lyzates are sampled, transferred into 96-well plates. The fluorescence intensities (λExc: 485 nm, λEm: 535 nm) are expressed in relative fluorescence units (RFU).
A dosage of the proteins (BCA protein assay) is carried out in parallel in order to correct the [DCFH] values (RFU/well) according to the cell protein level (pg/well) in order to do without a variation in the number of cells related to an effect of the assay element on cell growth.
The assay was carried out on HaCaT keratinocytes (HaCaTp91 strain) cultivated in a [DMEM+1% FCS] medium. The intracellular oxidation level was measured after treatment and irradiation of the cells.
The intracellular oxidation level (F.R.U/well: relative fluorescence unit) recorded at the control and treated cultures was corrected according to the average cell protein level (μg/well). The values [DCFH] are expressed in arbitrary units (from the optical densities): [DCFH]=(F.R.U/μg prot.).
Assay conditions: • 1. Pretreating the cells for 24 h, with the assay elements, before irradiation of the cells, • 2. Exposure of the cells to UV-B (20 mJ/cm^2), in the absence of the assay elements, • 3. Incubation of the irradiated cells for 24 h, in the presence of the assay elements, • 4. Quantification of the intracellular oxidation level (ROS) by measuring the fluorescence of DCFH.
The intracellular oxidation level (RFU/well) recorded at the control and treated cultures were corrected according to the average level of cell proteins (μg/well). […]

procollagen I = assay: Procollagen I [PIP] ELISA on UV-A irradiated fibroblasts (DPC); type: cell-based, human
Protocol: (§1) 3.2.1) The principle of the assay is based on the evaluation of 2 parameters—neosynthesis of collagen I and production of MMP-1—on human fibroblasts [NHDF] cultivated in the absence or in the presence of the assay element, and stimulated by UV-A.
(§2) The level of procollagen I is quantified by assaying [PIP] (procollagen of the I peptide type) in incubation media by means of an ELISA assay. The measurement of the MMP-1 level is conducted on the incubation media by means of an ELISA assay.
(§3) Fibroblasts [NHDF] are detached from their support by trypsinization. After counting, the cell suspension is sown in 24-well plates in an amount of 1.10^5 cells/well, in a [D-MEM+10% FCS] medium.
(§4) After 24 h of incubation, the culture medium is removed and replaced with fresh medium supplemented with 1% of FCS, without any ascorbic acid and containing the product(s) to be investigated. The cells are replaced in the oven and incubated for 24 h, in an air-CO2 atmosphere (95%/5%).
(§5) After incubation with test solutions, the cells are rinsed with HBSS and then exposed to UV-A (Philips TL-K 40 W ACTINIC BL REFLECTOR tubes) through HBSS. The UV-A irradiation is of about 10 J/cm^2 for 1 h. After irradiation, the HBSS is replaced with fresh medium containing the assay element.
(§6) The cells are replaced at 37° C. and incubated for 24 h. At the end of the assay, the incubation media of the cultures are sampled and frozen at −20° C. while awaiting the assaying of procollagen I and of MMP-1.
(§7) In parallel, the cell mats are rinsed with HBSS and treated for an assay of cell proteins (BCA protein assay). A (0.1N) NaOH solution is added into each well. After incubation, the extracts are sampled and transferred into a 96-well plate. 200 μl of BCA reagent are added into each well. After incubation, the absorbance (optical density) is measured at 570 nm with a microplate reader.
The assay of the procollagen I in the samples is carried out with an ELISA assay (Procollagen Type I C-Peptide EIA Kit from R&D Systems® laboratories, France) for detecting and quantifying by fluorescence the C-terminal peptide of human procollagen I.
(§8) In both cases, the quantification of the fluorescence is accomplished in the culture supernatants, according to the instructions provided by the R&D Systems® laboratories, France, the absorbance being measured at 450 nm.
(§9) The assay was carried out on [NHDF] (F06.2H7 strain) fibroblasts cultivated in a [DMEM+1% FCS] medium, in the absence of sodium ascorbate.
(§10) The levels of procollagen I and of MMP-1 were measured in the supernatants of the cultures after treatment and irradiation of the cells.
(§11) The NHDF cells were treated with the assay complexes CAAL-2, CAAL-3 and CAAL-4, before (24 h) and after (24 h) UVA irradiation.
(§12) The concentrations of procollagen I [PIP] c-terminal peptide and of metalloproteinase-1 [MMP-1] in the different samples (ng/ml) were corrected according to the protein concentrations of the corresponding wells.
DPC=% of increase in collagen after treatment of the NHDF fibroblast cells with UV in the presence of the complex according to the invention relatively to a control having been subject to a same UV treatment in the absence of the assay complex according to the present invention or other; and
(§13) Assay conditions: • 1. Treating the cells, for 24 h, with the assay elements, before irradiation of the cells, • 2. Exposure of the cells to UV-As, in the absence of the assay elements, • 3. Incubation of the irradiated cells for 24 h, in the presence of the assay elements, • 4. Quantification of the levels of pro-collagen I ([PIP] assay) and of MMP-1 in the incubation media.
(§14) Results: The [PIP] and [MMP] values recorded at the control and treated cultures were corrected according to the average level of cell proteins (μg/well).
Synthesis of procollagen I: assay of the [PIP] (procollagen of the type I peptide) assay in the incubation media.

MMP-1 = MMP-1 ELISA on UV-A irradiated fibroblasts (DPM); type: cell-based, human; settings: for DPM, % reduction of MMP-1 / [MMP-1]: VE 1 mM; for [MMP-1]: (+) UV-A, corrected for cell proteins
Protocol: as §1, §2, §3, §4, §5, §6, §7
The MMP-1 activity is measured with an ELISA assay (Human Active MMP-1 from R&D Systems® laboratories, FRANCE) for detecting and quantifying by fluorescence the MMP-1 activity.
as §8, §9, §10, §11, §12
DPM=% of reduction in metalloproteinase-1 after treatment of NHDF fibroblasts with UVs in the presence of the complex according to the invention relatively to a control having been subject to a same UV treatment in the absence of an assay complex according to the present invention or other.
as §13, §14
MMP-1 production: assay of MMP-1 in the incubation media by an Elisa assay.

[1] = tested on: HaCaT keratinocytes and NHDF fibroblasts; assay: Skin anti-ageing potential index AAC = AOE + 1/2 DPC + 1/2 DPM; set-up: species or system human; settings: Example 1; AOE+½DPC+½DPM
Protocol: An anti-age activity index designated as “AAC” was determined according to the present invention, which is a quantitative parameter of the anti-ageing skin potential of a test element taking into account a protective effect at the epidermis by integrating an epidermal anti-oxidant effect score and a protective effect at the dermis by integrating a dermo-protective effect score towards the synthesis of collagen, a main marker of the dermal extracellular matrix (ECM) and/or towards the degradation of metalloproteinase-1 (MMP-1) which is a collagenase enzyme produced by the fibroblasts of the dermis degrading the dermal extracellular matrix (ECM). Still more specifically, a capability is sought for opposing the reduction of collagen synthesis following UV stress and opposing the increase in the production of metalloproteinase-1 for ensuring dermal homeostasis.
More specifically, according to the present invention, an AAC potential is defined as follows:
[AOE]: % of epidermal anti-oxidant potential as defined hereafter.
[DPC.]: % of dermo-protective collagen potential as defined hereafter.
[DPM]: % of dermo-protective MMP1 potential as defined hereafter.
The skin anti-ageing potential ([AAC]) was calculated from the experimental data according to:
[A.A.C]=[AOE]+½.[DPC]+½.[DPM]

[2] = tested on: human keratinocyte cells (HaCaT line) and fibroblasts
Protocol: For each of the substances above, the maximum non-cytotoxic doses were determined, corresponding to cell viability ≥90% (hereafter “NCD”). Cell viability was evaluated by a neutral red test (NR) on human keratinocyte cells (HaCaT line) and on fibroblasts described hereafter after contact for 48 h. The substances were poured into the culture medium DMEM+10% FCS.

[3] = Example 1, NHDF, vs (+) UV control, ASC 50 μg/ml
[4] = Example 1, relative to (+) UV control 2 = 100%
[5] = Example 2, NHDF, vs (+) UV control
[6] = Example 1, NHDF, vs (+) UV control

Question: What does the source list for O=C1O[C@H]([C@@H](O)CO)C([O-])=C1O.[Na+] [ASC, sodium ascorbate]?
Answer: AOE, % reduction of [ROSUV] (HaCaT keratinocytes; Example 1, VE 1 mM): 0%; DPC, % increase in collagen (procollagen I; [3]): 143%; [PIP] (%) (procollagen I; [4]): 243%; [PIP] % of (+) UV control (procollagen I; Example 2): 243%; [PIP] (procollagen I; Example 2, NHDF, (+) UV-A, corrected for cell proteins, ASC 50 μg/ml): 3.79 +/− 0.04; DPC dermo-protective collagen potential (procollagen I; [5]): capable of restoring neosynthesis of collagen I depressed by UVs; DPM, % reduction of MMP-1 (MMP-1; [6]): 0%; AAC skin anti-ageing potential [1]: 71.5%

Question: What does the source list for Cc1c(C)c2c(c(C)c1O)CC[C@@](C)(CCC[C@H](C)CCC[C@H](C)CCCC(C)C)O2 [VE, α-tocopherol]?
Answer: DCFH ASSAY intracellular oxidation level [DCFH] (HaCaT keratinocytes; Example 1, HaCaT, (+) UV-B 20 mJ/cm2, treated 24 h before and 24 h after, complexes at Table I conc., VE 1 mM, average +/- SD, n=3): 35.72 +/− 2.66 F.R.U/μg prot.; UV-induced ROS (HaCaT keratinocytes; Example 1, [DCFH] minus non-irradiated control 1): 22.92 F.R.U/μg prot.; UV-induced ROS (%) (HaCaT keratinocytes; [4]): 19%; AOE, % reduction of [ROSUV] (HaCaT keratinocytes; Example 1, VE 1 mM): 81%; UV-induced ROS (DCFH minus non-irradiated control) (HaCaT keratinocytes; Example 2): 16.38 RFU/μg prot.; DCFH [ROS] intracellular oxidation level (HaCaT keratinocytes; Example 2, HaCaT, (+) UV-B 20 mJ/cm2, DMEM+FCS(1%), average +/- SD, n=3): 28.03 +/− 1.12 RFU/μg prot.; UV-induced ROS (%) (HaCaT keratinocytes; Example 2, relative to (+) UV control = 100%): 12%; AOE anti-oxidant epidermal potential, % reduction of [ROSUV] (HaCaT keratinocytes; Example 2, vitamin E 1 mM): 88%; DPC, % increase in collagen (procollagen I; [3]): 0%; [MMP-1] (MMP-1; Example 1, NHDF, average +/- SD, n=3): 0.172+/— ng/ml; DPM, % reduction of MMP-1 (MMP-1; [6]): 31%; [MMP-1] (%) (MMP-1; [4]): 69%; [MMP-1] % of (+) UV control (MMP-1; Example 2): 62%; [MMP-1] (MMP-1; Example 2, NHDF): 0.198 +/− 0.006; DPM dermo-protective MMP1 potential, % reduction of MMP-1 (MMP-1; [5]): 38%; AAC skin anti-ageing potential [1]: 96.5%

Question: With sodium hyaluronate [SODIUM H[…]] as the compound, how does the “NCD (%) by weight (maximum non-cytotoxic dose)” value [2] read?
Answer: 0.2% by weight
